≈ marks a conversion by molar mass, not a printed value.
Assays:
[1] = biological target: CYP2C8 (Homo sapiens, UniProt P10632); test: CYP inhibition in human liver microsomes
[2] = tested on: PC-3 cells; test: Annexin V binding assay (flow cytometry); assay type: cell-based, human; conditions: 2.0 mg/ml Etn
Experimental: Annexin V binding assays were performed for control and 2.0 mg/ml Etn-treated cells along with counterstaining with 7-AAD to distinguish between dead and apoptotic cells. Annexin V positive cells were analyzed using flow cytometry. Representative scatter plots for control and Etn-treated cells stained with 7-AAD and annexin V are shown.
Annexin-V is known to bind to phosphatidylserine (PS) lipids which flip to the outer leaflet of plasma membrane in apoptotic cells (Vermes I. et al., J. Immunol. Methods, 1995, vol. 184, pp. 39-51). Annexin-V binding to PS is therefore a good indicator of cells undergoing apoptosis.

[3] = tested on: Ki67; test: Immunohistochemical staining of PC-3-luc xenografts; assay type: in vivo, mice; conditions: Etn-treated tumors (40 mg/kg)
Experimental: OCR was measured using an oxygen electrode.
While ˜62% cells were Ki67-positive in untreated control tumors, Ki67 positivity was reduced to ˜40% in Etn-treated tumors (FIG. 14, panel Dii).
Tumors were formalin-fixed, paraffin-embedded and 5 μm thick prostate tumor sections were stained for Ki67 and c-PARP, and prostate cancer TMA (US Biomax, Derwood, Mass.) was immunostained for choline kinase. All stained slides were examined by a pathologist in a blinded-manner.

[4] = tested on: PC-3-luc; test: PC-3-luc prostate tumor xenograft
[5] = biological target: CYP1A2 (Homo sapiens, UniProt P05177); test: CYP inhibition in human liver microsomes
Sequence of CYP1A2 (P05177 whole entry): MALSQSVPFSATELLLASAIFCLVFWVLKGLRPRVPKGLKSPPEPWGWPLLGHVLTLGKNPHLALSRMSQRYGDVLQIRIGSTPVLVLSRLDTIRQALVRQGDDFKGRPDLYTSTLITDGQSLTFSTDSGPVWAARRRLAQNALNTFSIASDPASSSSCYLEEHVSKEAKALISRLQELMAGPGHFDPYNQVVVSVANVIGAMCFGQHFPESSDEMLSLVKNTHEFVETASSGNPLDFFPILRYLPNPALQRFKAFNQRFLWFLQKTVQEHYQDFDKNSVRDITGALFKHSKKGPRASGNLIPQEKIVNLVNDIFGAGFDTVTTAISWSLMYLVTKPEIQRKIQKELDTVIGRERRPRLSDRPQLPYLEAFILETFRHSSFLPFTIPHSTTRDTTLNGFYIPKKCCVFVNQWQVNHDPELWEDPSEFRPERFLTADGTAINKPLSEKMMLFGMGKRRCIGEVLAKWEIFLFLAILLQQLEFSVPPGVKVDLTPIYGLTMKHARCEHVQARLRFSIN

[6] = tested on: DU145; test: DU145 prostate tumor xenograft; conditions: 40 mg/kg Etn, oral gavage, 4 weeks
[7] = tested on: PC-3-luc tumors; test: Glucose and glutamine contents in tumors (LC-MS/MS); conditions: 40 mg/kg Etn-treated tumors vs untreated control
[8] = tested on: PC-3 cells; test: Intracellular levels of Etn and PhosE by LC-MS/MS; assay type: cell-based, human; conditions: 1 mg/ml, 48 h, pH 7.4
[9] = biological target: CYP2C9 (Homo sapiens, UniProt P11712); test: CYP inhibition in human liver microsomes
Sequence of CYP2C9 (P11712 whole entry): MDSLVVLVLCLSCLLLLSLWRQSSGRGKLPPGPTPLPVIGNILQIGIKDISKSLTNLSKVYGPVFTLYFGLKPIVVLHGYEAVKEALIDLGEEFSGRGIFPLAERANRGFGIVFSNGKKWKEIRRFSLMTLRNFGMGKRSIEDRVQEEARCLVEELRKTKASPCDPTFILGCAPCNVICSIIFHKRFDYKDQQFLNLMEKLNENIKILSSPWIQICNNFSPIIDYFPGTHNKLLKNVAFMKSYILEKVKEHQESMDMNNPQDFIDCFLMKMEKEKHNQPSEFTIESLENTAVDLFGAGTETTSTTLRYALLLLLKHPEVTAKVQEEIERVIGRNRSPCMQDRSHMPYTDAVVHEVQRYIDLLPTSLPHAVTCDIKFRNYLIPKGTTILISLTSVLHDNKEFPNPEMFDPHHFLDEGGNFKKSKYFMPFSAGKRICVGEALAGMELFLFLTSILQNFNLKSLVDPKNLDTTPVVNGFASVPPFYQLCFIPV

[10] = Acute toxicity, single oral limit dose; assay type: in vivo, Sprague-Dawley (SD) rats; conditions: single oral dose of 5 g/kg, five male and five female rats, monitored one week
[11] = tested on: PC-3 cells; test: Glucose and glutamine contents in cultured cells (LC-MS/MS); conditions: 2 mg/ml Etn for 48 h vs control cells
[12] = biological target: CYP2C19 (Homo sapiens, UniProt P33261); test: CYP inhibition in human liver microsomes
Sequence of CYP2C19 (P33261 whole entry): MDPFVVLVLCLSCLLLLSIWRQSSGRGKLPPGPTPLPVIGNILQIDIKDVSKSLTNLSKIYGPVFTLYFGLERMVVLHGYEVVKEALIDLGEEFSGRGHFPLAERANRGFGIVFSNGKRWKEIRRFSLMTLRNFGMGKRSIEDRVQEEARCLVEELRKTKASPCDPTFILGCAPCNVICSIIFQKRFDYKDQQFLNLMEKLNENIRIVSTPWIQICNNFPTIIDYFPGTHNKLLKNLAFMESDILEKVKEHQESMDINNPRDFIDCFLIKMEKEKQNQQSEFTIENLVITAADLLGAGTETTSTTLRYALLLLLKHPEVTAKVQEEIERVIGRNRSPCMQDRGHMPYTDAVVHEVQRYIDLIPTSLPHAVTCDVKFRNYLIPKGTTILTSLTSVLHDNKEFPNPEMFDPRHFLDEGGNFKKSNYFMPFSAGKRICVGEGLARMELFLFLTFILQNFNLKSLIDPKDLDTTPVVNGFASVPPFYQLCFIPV

[13] = tested on: RWPE-1; test: MTT cell proliferation assay, normal prostate cells; assay type: cell-based; conditions: 0.5 mg/ml Etn, 48 h
Experimental: (§1) After 48 h, drug containing medium was replaced by medium containing MTT (tetrazolium bromide) at a concentration of 0.5 mg/ml. The yellow tetrazolium salt is reduced to insoluble purple formazan by viable cells. After 4 h of incubation in dark, formazan crystals produced by viable cells were dissolved by 200 μl DMSO and the amount of formazan crystals formed was quantified by recording the absorbance at 570 nm using multi-well plate reader. […] After 10 days, colonies were fixed with 4% formaldehyde, stained with crystal violet and counted.

[14] = tested on: HCT116; test: HCT116 colon tumor xenograft; conditions: 40 mg/kg Etn oral, 2 weeks
[15] = tested on: OVCAR-5; test: MTT cell proliferation assay; assay type: cell-based; conditions: Homo sapiens, 48 h, pH 7.4
Experimental: as §1

[16] = tested on: C4-2B; test: MTT cell proliferation assay; assay type: cell-based; conditions: 0.5 mg/ml Etn, 48 h; range given for PC-3, DU145 and C4-2B together
Experimental: as §1

[17] = tested on: MDA-MB-468; test: MTT cell proliferation assay; assay type: cell-based; conditions: Homo sapiens, 48 h, pH 7.4
Experimental: as §1

[18] = tested on: CFPAC-1; test: MTT cell proliferation assay; assay type: cell-based; conditions: Homo sapiens, 48 h, pH 7.4
Experimental: as §1

[19] = biological target: CYP2A6 (Homo sapiens, UniProt P11509); test: CYP inhibition in human liver microsomes
Sequence of CYP2A6 (P11509 whole entry): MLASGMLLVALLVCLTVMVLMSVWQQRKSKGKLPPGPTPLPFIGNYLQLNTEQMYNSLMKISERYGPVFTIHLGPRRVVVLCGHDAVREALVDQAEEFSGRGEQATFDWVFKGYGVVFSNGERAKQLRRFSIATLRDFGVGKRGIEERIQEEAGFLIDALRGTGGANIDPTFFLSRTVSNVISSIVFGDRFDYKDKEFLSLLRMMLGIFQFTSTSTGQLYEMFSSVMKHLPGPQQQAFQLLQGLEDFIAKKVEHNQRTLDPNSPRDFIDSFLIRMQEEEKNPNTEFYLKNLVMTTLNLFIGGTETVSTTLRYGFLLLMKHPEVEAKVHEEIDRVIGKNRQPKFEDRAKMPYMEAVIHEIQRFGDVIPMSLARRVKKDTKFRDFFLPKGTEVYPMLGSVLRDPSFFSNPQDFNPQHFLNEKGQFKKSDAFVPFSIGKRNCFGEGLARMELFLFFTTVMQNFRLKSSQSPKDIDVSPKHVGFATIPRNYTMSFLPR

[20] = biological target: CYP2D6 (Homo sapiens, UniProt P10635); test: CYP inhibition in human liver microsomes
Sequence of CYP2D6 (P10635 whole entry): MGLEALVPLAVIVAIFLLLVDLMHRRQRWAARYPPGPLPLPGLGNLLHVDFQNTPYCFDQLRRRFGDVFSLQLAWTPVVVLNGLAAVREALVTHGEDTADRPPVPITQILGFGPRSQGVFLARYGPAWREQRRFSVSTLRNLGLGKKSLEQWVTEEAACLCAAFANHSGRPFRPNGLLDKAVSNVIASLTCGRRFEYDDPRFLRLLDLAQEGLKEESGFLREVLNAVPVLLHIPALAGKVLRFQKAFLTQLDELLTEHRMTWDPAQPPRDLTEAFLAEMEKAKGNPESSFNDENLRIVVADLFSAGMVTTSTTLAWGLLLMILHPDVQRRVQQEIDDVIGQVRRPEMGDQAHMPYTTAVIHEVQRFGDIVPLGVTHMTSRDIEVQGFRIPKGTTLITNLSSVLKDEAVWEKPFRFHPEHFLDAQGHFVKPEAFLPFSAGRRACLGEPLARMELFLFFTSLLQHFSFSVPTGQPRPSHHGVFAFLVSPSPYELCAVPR

[21] = tested on: PC-3 cells; test: Clonogenic cell survival (colony) assay; assay type: cell-based, human; conditions: 2 mg/ml, 48 h treatment, colonies after 10 days
Experimental: (§2) Next, a clonogenic cell survival assay was performed to assess the reproductive capacity of cells upon drug removal.
as §1

[22] = tested on: PC-3 cells; test: MTT cell proliferation assay; assay type: cell-based, human
Experimental: as §2, §1

[23] = parameters: species or system BALB/c mice; conditions: mouse, in vivo, 40 mg/kg
Experimental: Mice were sacrificed after 24, 48 h and 1, 2, 3, 4 weeks and spleens were collected. Total splenocytes were counted after lysis of RBC with RBC lysis buffer. After this, splenocytes where incubated with anti-CD16/CD32 antibody to block Fc receptors and then labeled with anti-CD3-APC, anti-CD4-Alexa488, anti-CD8-Alexa488, anti-DX5-FITC, or anti-CD19-FITC antibodies according to the manufacturer's instructions. Labeled cells were analyzed by flow cytometry using an LSRFortessa Flow cytometer (BD Biosciences, CA). Data from this analysis was analyzed using FlowJo software (TreeStar, OR).

[24] = 40 mg/kg Etn pH 5 (phosphoric acid), oral gavage, 4 weeks

Sequence of CYP2C8 (P10632 whole entry): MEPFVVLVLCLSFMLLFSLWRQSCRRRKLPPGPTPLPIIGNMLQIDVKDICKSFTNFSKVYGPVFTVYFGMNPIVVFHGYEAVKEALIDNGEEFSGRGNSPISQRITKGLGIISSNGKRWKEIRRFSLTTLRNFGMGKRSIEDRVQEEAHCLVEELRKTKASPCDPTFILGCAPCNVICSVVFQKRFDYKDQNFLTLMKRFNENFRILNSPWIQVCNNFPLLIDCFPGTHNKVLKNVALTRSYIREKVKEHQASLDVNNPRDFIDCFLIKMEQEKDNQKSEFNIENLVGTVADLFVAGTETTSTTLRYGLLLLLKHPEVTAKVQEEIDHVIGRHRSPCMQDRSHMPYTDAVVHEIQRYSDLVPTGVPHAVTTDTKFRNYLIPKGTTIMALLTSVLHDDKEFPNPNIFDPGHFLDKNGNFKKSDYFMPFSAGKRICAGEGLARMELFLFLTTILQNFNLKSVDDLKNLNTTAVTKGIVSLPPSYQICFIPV

NCCO [Etn, monoethanolamine]
IC50 [1]: > 100 µM
annexin-V positive cells [2]: ~25%
Ki67 positivity [3]: ~40%
body weight ([4]; 40 mg/kg Etn oral, over the course of treatment, both models): no apparent changes in body weight
reduction in tumor volume vs untreated control tumors [4, 24]: ~67%
reduction in tumor weight vs untreated control tumors [4, 24]: ~55%
IC50 [5]: > 100 µM
reduction in tumor volume [6]: ~42%
reduction in tumor weight [6]: ~29%
glucose and glutamine contents [7]: significantly reduced
increase in intracellular PhosE levels compared to control cells [8]: ~40 fold
IC50 [9]: > 100 µM
acute toxicity [10]: all rats were alive and did not display any sign of distress or toxicity
glucose and glutamine contents [11]: significantly reduced
IC50 [12]: > 100 µM
reduction of survival [13]: remained unaffected
body weight [14]: did not change significantly
IC50 [15]: 290 µg/mL (≈ 4.75 mM)
reduction of survival [16]: 30-52%
IC50 [17]: 550 µg/mL (≈ 9 mM)
IC50 [18]: 1900 µg/mL (≈ 31.1 mM)
IC50 [19]: > 100 µM
IC50 [20]: > 100 µM
decrease in colony numbers compared to control cells [21]: ~97%
Etn-induced cell death with HIF1-α stabilization ([22]; 35 μg/mL DMOG pre-treatment 4 h, then 1 and 2 mg/ml Etn with DMOG 48 h): more effective in reducing survival in PC-3 cells
reduction of cell survival ([22]; 0.5 mg/ml Etn, 48 h, pH 7.4 (siRNA experiment)): ~38%
reduction of survival ([22]; 0.5 mg/ml Etn, 48 h, range given for PC-3, DU145 and C4-2B together): 30-52%
reduction in cell proliferation ([22]; 1 mg/ml Etn alone, 48 h, pH 7.4): ~33%
reduction in cell proliferation ([22]; 1 mg/ml Etn in the presence of 1 μM CKI, 48 h, pH 7.4): ~17%
IC50 ([22]; Homo sapiens, PC-3, 48 h, pH 7.4, MTT, 48 h, pH 7.4, read-out: half-maximal concentration (IC50)): ~880 µg/mL (≈ 14.4 mM)
half-maximal concentration (IC50) ([22]; MTT, 48 h, pH 7.4): 0.88 mg/mL
immunotoxicities [23]: does not induce immunotoxicities
